From EP4268824A1 (Manros Therapeutics, priority 2022, dated 2023)
Like-named read-outs stand apart in the source and are kept apart here.

Key:
CK1γ1 = CK1γ1 (Homo sapiens, UniProt Q9HCP0); assay: Kinase inhibition, dose-response; format: biochemical; conditions: > 10: no inhibition at 10 µM, the highest dose tested
Experimental: (§1) All compounds were additionally tested over a range of concentrations for their ability to inhibit a series of 14 kinases. IC50 values were calculated from the dose-response curves and are reported in µM. > 10, no inhibition at 10 µM, the highest dose tested (see table 6 below). [drawing 409] Table 5: CFE cells were treated with Trikafta in the presence of increasing concentrations of various compounds and their N7-methylated counterparts. Their F508del-CFTR activity is reported as percentage of F508del-CFTR activity in the presence of Trikafta alone (100%).

CK1γ3 = CK1γ3 (Homo sapiens, UniProt Q9Y6M4); assay: Kinase inhibition, dose-response; format: biochemical; conditions: > 10: no inhibition at 10 µM, the highest dose tested
Experimental: as §1

CDK2 = CDK2 (Homo sapiens, UniProt P24941); assay: Kinase inhibition, dose-response; format: biochemical; conditions: > 10: no inhibition at 10 µM, the highest dose tested
Experimental: as §1

CLK1 = CLK1 (Homo sapiens, UniProt P49759); assay: Kinase inhibition, dose-response; format: biochemical; conditions: > 10: no inhibition at 10 µM, the highest dose tested
CLK1, sequence (P49759 whole entry): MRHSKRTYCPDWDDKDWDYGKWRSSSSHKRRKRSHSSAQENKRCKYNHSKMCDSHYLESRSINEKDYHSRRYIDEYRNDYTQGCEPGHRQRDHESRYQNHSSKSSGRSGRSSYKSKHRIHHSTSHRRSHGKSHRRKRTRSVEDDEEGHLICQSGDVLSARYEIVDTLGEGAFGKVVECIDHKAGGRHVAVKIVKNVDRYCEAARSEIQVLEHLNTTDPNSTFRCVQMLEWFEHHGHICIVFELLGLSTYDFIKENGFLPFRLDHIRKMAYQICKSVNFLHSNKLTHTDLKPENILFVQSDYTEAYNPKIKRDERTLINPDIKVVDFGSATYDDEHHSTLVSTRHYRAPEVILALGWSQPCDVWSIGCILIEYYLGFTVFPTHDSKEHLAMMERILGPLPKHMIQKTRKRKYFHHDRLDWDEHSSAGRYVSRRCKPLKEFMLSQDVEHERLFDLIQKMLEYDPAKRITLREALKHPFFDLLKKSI
Experimental: as §1

CLK3 = CLK3 (Homo sapiens, UniProt P49761); assay: Kinase inhibition, dose-response; format: biochemical; conditions: > 10: no inhibition at 10 µM, the highest dose tested
CLK3, sequence (P49761 whole entry, species assumed): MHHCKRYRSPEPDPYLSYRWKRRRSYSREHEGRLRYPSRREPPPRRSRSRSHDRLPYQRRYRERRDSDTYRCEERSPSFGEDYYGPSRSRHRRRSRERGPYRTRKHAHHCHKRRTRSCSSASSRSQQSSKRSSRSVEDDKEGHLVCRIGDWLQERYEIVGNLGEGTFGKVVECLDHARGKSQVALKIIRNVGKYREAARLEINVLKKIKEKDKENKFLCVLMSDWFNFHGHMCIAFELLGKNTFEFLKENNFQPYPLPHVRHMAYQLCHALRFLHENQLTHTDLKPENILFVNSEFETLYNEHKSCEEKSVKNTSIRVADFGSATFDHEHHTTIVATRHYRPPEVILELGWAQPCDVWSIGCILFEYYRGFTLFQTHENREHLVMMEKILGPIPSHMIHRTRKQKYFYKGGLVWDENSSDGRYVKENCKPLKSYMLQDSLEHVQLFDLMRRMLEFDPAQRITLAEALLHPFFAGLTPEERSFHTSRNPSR
Experimental: as §1

CDK7 = CDK7 (Homo sapiens, UniProt P50613); assay: Kinase inhibition, dose-response; format: biochemical; conditions: > 10: no inhibition at 10 µM, the highest dose tested
CDK7, sequence (P50613 whole entry, species assumed): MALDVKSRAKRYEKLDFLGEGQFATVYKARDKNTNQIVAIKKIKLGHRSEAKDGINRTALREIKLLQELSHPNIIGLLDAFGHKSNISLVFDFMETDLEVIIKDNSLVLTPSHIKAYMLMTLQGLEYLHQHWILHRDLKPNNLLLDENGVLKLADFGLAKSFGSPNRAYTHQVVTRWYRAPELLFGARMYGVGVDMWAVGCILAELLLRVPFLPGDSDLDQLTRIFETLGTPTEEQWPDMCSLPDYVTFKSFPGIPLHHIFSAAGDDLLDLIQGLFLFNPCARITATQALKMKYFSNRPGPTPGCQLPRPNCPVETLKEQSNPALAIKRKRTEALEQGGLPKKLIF
CDK7, sequence (P51946 whole entry partner, species assumed): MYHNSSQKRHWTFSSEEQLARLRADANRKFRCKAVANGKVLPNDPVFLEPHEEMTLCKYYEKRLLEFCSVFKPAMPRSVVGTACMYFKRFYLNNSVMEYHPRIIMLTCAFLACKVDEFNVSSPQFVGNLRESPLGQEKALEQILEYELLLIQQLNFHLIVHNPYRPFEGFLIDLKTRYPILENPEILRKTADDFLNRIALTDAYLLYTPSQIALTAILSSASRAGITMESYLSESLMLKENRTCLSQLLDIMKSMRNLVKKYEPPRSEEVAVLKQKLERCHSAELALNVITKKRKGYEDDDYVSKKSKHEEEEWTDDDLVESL
CDK7, sequence (P51948 whole entry partner, species assumed): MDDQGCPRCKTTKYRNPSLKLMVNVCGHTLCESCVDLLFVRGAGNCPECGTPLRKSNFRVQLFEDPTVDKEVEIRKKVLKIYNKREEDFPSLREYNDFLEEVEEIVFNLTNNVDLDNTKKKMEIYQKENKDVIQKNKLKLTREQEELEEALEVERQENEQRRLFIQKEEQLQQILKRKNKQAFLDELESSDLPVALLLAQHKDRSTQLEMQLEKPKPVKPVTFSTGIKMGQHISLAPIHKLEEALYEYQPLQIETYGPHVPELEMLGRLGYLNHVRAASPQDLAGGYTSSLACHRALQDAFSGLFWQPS
Experimental: as §1

CDK9 = CDK9 (Homo sapiens, UniProt P50750); assay: Kinase inhibition, dose-response; format: biochemical; conditions: > 10: no inhibition at 10 µM, the highest dose tested
Experimental: as §1

DYRK1A = DYRK1A (Homo sapiens, UniProt Q13627); assay: Kinase inhibition, dose-response; format: biochemical; conditions: > 10: no inhibition at 10 µM, the highest dose tested
Experimental: as §1

CK1ε = CK1ε (Homo sapiens, UniProt P49674); assay: Kinase inhibition, dose-response; format: biochemical; conditions: > 10: no inhibition at 10 µM, the highest dose tested
CK1ε, sequence (P49674 whole entry): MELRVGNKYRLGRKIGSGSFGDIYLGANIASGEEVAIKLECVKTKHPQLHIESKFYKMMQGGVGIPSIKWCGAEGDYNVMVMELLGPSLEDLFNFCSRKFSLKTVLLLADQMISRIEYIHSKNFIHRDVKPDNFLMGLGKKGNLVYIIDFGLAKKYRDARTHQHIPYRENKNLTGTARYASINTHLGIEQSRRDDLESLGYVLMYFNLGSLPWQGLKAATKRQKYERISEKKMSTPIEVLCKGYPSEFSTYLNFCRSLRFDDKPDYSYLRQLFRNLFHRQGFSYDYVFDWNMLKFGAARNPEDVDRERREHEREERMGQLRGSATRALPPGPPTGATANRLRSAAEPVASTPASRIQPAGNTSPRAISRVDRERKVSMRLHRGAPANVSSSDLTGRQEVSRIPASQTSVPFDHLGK
Experimental: as §1

CLK2 = CLK2 (Homo sapiens, UniProt P49760); assay: Kinase inhibition, dose-response; format: biochemical; conditions: > 10: no inhibition at 10 µM, the highest dose tested
Experimental: as §1

CK1α1 = CK1α1 (Homo sapiens, UniProt P48729); assay: Kinase inhibition, dose-response; format: biochemical; conditions: > 10: no inhibition at 10 µM, the highest dose tested
CK1α1, sequence (P48729 whole entry): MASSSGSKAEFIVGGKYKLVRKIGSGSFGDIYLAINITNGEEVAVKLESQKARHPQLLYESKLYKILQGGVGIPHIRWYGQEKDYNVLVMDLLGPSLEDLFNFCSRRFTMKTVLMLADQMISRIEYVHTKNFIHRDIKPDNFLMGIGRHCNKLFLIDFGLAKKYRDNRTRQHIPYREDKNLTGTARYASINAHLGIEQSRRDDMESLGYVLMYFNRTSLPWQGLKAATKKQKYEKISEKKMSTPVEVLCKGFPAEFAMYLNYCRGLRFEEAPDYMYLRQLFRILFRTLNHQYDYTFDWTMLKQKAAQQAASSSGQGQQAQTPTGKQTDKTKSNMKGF
Experimental: as §1

CK1γ2 = CK1γ2 (Homo sapiens, UniProt P78368); assay: Kinase inhibition, dose-response; format: biochemical; conditions: > 10: no inhibition at 10 µM, the highest dose tested
CK1γ2, sequence (P78368 whole entry): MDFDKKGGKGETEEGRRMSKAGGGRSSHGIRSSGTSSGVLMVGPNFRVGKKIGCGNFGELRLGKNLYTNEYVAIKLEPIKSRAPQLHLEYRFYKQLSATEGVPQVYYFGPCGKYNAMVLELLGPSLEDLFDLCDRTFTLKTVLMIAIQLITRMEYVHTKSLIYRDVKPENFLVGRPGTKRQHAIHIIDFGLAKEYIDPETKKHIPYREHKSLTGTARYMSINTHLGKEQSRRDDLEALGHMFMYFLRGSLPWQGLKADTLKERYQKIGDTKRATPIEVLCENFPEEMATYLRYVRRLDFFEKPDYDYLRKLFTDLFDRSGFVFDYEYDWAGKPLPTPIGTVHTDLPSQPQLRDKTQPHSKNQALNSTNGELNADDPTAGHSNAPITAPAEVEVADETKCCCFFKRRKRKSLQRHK
Experimental: as §1

CK1δ = CK1δ (Homo sapiens, UniProt P48730); assay: Kinase inhibition, dose-response; format: biochemical; conditions: > 10: no inhibition at 10 µM, the highest dose tested
Experimental: as §1

F508del-CFTR [1] = molecular target: T1, F508del-CFTR (Homo sapiens, UniProt P13569, DEL508-508); assay: CFTR activation assay: short-circuit current measurements (Ussing chamber) in CFBE cells treated 24 h with CFTR modulator(s) plus compound; format: cell-based; conditions: for F508del-CFTR activity as percentage of F508del-CFTR activity in the presence of Trikafta alone (100%): CFE cells, with Trikafta; for F508del-CFTR activity ('inhibition shift' induced by CFTR-172) in reference to the CFTR activity induced by Trikafta® alone (value=100): substance with R1 = [drawing 9], CFBE cells, with Trikafta®
T1 construct: expressed in transfected cells; host or cells: CFBE41o- cells (CFBE F508del-CFTR), puromycin-selected
T1 sequence (P13569 with tags, fused parts or gaps DEL508-508): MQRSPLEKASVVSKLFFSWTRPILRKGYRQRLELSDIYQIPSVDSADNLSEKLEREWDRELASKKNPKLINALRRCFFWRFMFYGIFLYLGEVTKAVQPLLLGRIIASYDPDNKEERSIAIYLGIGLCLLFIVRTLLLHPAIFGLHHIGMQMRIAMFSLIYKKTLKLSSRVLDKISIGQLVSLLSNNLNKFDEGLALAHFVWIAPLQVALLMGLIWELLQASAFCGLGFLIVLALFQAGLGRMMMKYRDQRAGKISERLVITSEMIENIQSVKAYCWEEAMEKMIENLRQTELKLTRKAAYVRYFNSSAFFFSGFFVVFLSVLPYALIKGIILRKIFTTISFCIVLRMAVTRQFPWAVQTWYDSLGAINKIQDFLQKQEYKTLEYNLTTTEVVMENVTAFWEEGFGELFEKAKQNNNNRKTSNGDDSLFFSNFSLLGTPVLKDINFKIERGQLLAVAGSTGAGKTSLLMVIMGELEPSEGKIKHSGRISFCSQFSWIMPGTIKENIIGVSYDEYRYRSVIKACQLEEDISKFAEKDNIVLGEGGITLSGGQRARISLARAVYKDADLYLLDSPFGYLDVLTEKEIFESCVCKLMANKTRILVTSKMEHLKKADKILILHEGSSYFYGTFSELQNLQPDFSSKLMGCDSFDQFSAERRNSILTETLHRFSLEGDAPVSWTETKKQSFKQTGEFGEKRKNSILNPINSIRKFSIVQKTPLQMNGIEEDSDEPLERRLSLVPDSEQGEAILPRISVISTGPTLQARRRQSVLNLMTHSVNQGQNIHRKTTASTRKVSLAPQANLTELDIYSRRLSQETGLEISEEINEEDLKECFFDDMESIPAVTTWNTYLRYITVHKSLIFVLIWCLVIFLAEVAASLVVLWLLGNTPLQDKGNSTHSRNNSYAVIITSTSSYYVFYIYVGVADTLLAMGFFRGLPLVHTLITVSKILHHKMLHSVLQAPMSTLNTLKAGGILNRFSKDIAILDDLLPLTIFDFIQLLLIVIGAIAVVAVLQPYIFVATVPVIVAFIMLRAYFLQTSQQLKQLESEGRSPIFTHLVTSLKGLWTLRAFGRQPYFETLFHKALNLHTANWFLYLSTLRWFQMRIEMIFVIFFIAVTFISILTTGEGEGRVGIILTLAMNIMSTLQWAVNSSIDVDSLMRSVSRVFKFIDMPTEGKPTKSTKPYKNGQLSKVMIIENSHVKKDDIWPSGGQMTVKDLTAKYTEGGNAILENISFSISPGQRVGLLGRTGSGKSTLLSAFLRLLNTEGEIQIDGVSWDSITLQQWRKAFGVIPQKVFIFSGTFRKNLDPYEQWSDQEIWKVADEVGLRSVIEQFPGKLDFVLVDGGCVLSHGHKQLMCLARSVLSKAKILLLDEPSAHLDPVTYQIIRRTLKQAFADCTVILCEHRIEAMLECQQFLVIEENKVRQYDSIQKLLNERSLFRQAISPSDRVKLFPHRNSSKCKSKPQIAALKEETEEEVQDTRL
Experimental: • FIG 1. represents the conductance measurement as a function of time for assessing the activity of F508del-CFTR in CFBE cells using the Ussing chamber as set forth in example 13. Cells are incubated for 24 hours with either Trikafta® alone or Trikafta® + a compound of formula (I) as defined herein after. Conductance is measured as a function of time. […] This is the measure which are reported in all Tables shown below. • FIG 2. The correcting effect of Trikafta® on F508del-CFTR in a pulmonary epithelial cell line derived from a F508del-CFTR CF patient was tested as set forth in example 13 herein after in the presence of increasing concentrations of compound (44) as defined herein after and compound (107) as defined herein after. Dose-response curves were built from the activation and inhibition data (see FIG. 1). 100% represents the activity of Trikafta® alone. • FIG 3. […] CFE cells were treated with Trikafta® 100%, 33%, or 11%, in the absence or presence of 1 µM of compound (107). F508del-CFTR activity was monitored as described in the Experimental section and above. Activity is reported as percentage of δF508del-CFTR activity in the presence of Trikafta® alone (100%). The fold change over the activity of Trikafta® alone is indicated in parentheses. • FIG 4. The correcting effect of further CFTR modulators than Trikafta®, i.e. Galapagos compounds as defined herein after (GLPG 222 (G1), GLPG 1837 (G2), GLPG 2451 (G3)) (1 µM each) on F508del-CFTR in a pulmonary epithelial cell line derived from a F508del-CFTR CF patient was tested as set forth in example 13 herein after in the presence of increasing concentrations of compound (107) as defined herein after. Dose-response curves were built from the activation and inhibition data (see FIG. 1). 100% represents the activity of each CFTR modulator alone.
The activity of F508del-CFTR was indeed estimated according to the method described below in example 13. This method makes use of CFBE cells, an immortalized cell line generated from bronchial epithelium of a CF patient homozygous for F508del-CFTR [Kunzelmann, K. et al., 1993. An immortalized cystic fibrosis tracheal epithelial cell line homozygous for the F508del CFTR mutation. Am. J. Respir. Cell Mol. Biol. 8, 522-529.]. Cells are exposed for 24 hours to a combination of Trikafta® and a compound of formula (I) as defined herein after to be evaluated, and the activity of F508del-CFTR is measured by conductance in a Ussing chamber. The activation is initiated by addition of Forskolin (1 µM). […] All compounds tested were evaluated in combination with Trikafta®. In most instances, compounds were tested in triplicates at 0.1, 1 and 10 µM.
Wild-type CFBE cells (containing full-length, unmutated CFTR) are used as a reference.
F508del-CFTR expressing cells used in this present study were treated with CFTR modulators 24 h prior the experiments. The following CFTR modulators were used: Vx770 (Ivacaftor) (Selleckchem, S 1144) (Selleckchem, 24, rue des Tuileries, BP684, 67460 Souffelweyersheim, France), Vx445 (Elexacaftor) (Selleckchem, SE-S8851), Vx661 (Tezacaftor) (TargetMol, HY-15448) (TargetMol, Tebu-bio, 39 rue de Houdan, BP 15, 78612 Le-Perray-en-Yvelines cedex, France). Trikafta® is the combination of 1 µM Vx770, 3 µM Vx 445 and […] Vx661.
CFBE cell line stably expressing F508del-CFTR or WT-CFTR (CFBE WT-CFTR) were grown at 37°C in 5% CO2 - 95% air and media was replaced every 2 days.

CLK4 = CLK4 (Homo sapiens, UniProt Q9HAZ1); assay: Kinase inhibition, dose-response; format: biochemical
Source text: All compounds were additionally tested over a range of concentrations for their ability to inhibit a series of 14 kinases. […] Their F508del-CFTR activity is reported as percentage of F508del-CFTR activity in the presence of Trikafta alone (100%).

[2] = Bettayeb et al. 2008; Popowycz et al. 2009; cited from earlier work
kinase = conditions: Bettayeb et al. 2008; Popowycz et al. 2009; cited from earlier work
F508del-CFTR [3] = conditions: Norez et al. 2014; cited from earlier work
alveolar macrophages = conditions: Riazanski et al. 2015; cited from earlier work

CC(C)c1cnc2c(NCc3ccccc3)nc(N[C@@H]3CCOC3)nn12 [compound 19, N4-Benzyl-7-isopropyl-N2-[(3R)-tetrahydrofuran-3-yl]imidazo[2,1-f][1,2,4]triazine-2,4-diamine]
IC50 (CK1γ1): > 10000 nM
IC50 (CK1γ3): > 10000 nM
IC50 (CDK2): 1280 nM
IC50 (CLK1): 1170 nM
IC50 (CLK3): > 10000 nM
IC50 (CDK7): 496 nM
IC50 (CDK9): 3180 nM
IC50 (DYRK1A): > 10000 nM
IC50 (CK1ε): 1320 nM
IC50 (CLK2): 1050 nM
IC50 (CK1α1): > 10000 nM
IC50 (CK1γ2): > 10000 nM
IC50 (CK1δ): 594 nM
F508del-CFTR activity as percentage of F508del-CFTR activity in the presence of Trikafta alone (100%) (F508del-CFTR [1]; concentration 0.1 µM): 112.0%
F508del-CFTR activity as percentage of F508del-CFTR activity in the presence of Trikafta alone (100%) (F508del-CFTR [1]; concentration 1 µM): 122.2%
F508del-CFTR activity as percentage of F508del-CFTR activity in the presence of Trikafta alone (100%) (F508del-CFTR [1]; concentration 10 µM): 155.6%
IC50 (CLK4; > 10: no inhibition at 10 µM, the highest dose tested, read-out: IC50 CLK4): 1840 nM

CC(C)c1cnn2c(NCc3ccccc3)cc(N[C@@H]3CCOC3)nc12 [(D), reference compound]
F508del-CFTR activity ('inhibition shift' induced by CFTR-172) in reference to the CFTR activity induced by Trikafta® alone (value=100) (F508del-CFTR [1]; C 0.1 µM): 98.0
F508del-CFTR activity ('inhibition shift' induced by CFTR-172) in reference to the CFTR activity induced by Trikafta® alone (value=100) (F508del-CFTR [1]; C 1 µM): 110.1
F508del-CFTR activity ('inhibition shift' induced by CFTR-172) in reference to the CFTR activity induced by Trikafta® alone (value=100) (F508del-CFTR [1]; C 10 µM): 98.7

CC[C@H](CO)Nc1nc(NCc2ccccc2)c2ncc(C(C)C)n2n1 [compound 6, (2R)-2-[[4-(Benzylamino)-7-isopropyl-imidazo[2,1-f][1,2,4]triazin-2-yl]amino]butan-1-ol]
antitumor properties [2]: modest antitumor properties
kinase inhibitory activity (kinase): modest kinase inhibitory activity

CC(C)c1cnc2c(NCc3ccccc3)nc(NC3CCOCC3)nn12 [compound 44]
IC50 (CK1γ1): > 10000 nM
IC50 (CK1γ3): > 10000 nM
IC50 (CDK2): 579 nM
IC50 (CLK1): 537 nM
IC50 (CLK3): > 10000 nM
IC50 (CDK7): 207 nM
IC50 (CDK9): 1170 nM
IC50 (DYRK1A): 6530 nM
IC50 (CK1ε): 1730 nM
IC50 (CLK2): 493 nM
IC50 (CK1α1): > 10000 nM
IC50 (CK1γ2): > 10000 nM
IC50 (CK1δ): 626 nM
IC50 (CLK4): 580 nM

CC[C@H](CO)Nc1nc(NCc2ccccc2)c2ncn(C(C)C)c2n1 [roscovitine]
correction of the defective function of F508del-CFTR (F508del-CFTR [3]): partially correct the defective function of F508del-CFTR
intra-phagolysosomal pH of alveolar macrophages (alveolar macrophages): reduce the intra-phagolysosomal pH of alveolar macrophages
activating or boosting activity on a human lung epithelium cell line with F508del-CFTR mutation, in combination with Trikafta® (F508del-CFTR [1]; result in words): no activating or boosting activity
